According to PubChem BioAssay AID1259407 (Chemical Carcinogenesis Research Information System (CCRIS), 2018):
The source made the active and inactive calls. The rule behind the calls is not given here.

Tested on: CCRIS mutagenicity, Ames/micronucleus/aberration tests
Assay: CCRIS mutagenicity studies
[1] = Test System: AMES SALMONELLA TYPHIMURIUM, Strain/Indicator: TA98, Metabolic Activation: NONE, Method: PREINCUBATION
[2] = Test System: AMES SALMONELLA TYPHIMURIUM, Strain/Indicator: TA100, Metabolic Activation: NONE, Method: PREINCUBATION
[3] = Test System: AMES SALMONELLA TYPHIMURIUM, Strain/Indicator: TA100, Metabolic Activation: NONE, Method: STANDARD PLATE
[4] = Test System: AMES SALMONELLA TYPHIMURIUM, Strain/Indicator: TA1535, Metabolic Activation: NONE, Method: PREINCUBATION
[5] = Test System: AMES SALMONELLA TYPHIMURIUM, Strain/Indicator: TA100, Metabolic Activation: RAT, LIVER, S-9, AROCLOR 1254, Method: STANDARD PLATE

CC(Br)CBr (stereo unspecified)
mutagenic call (Test System: AMES SALMONELLA TYPHIMURIUM, Strain/Indicator: TA97, Metabolic Activation: NONE, Method: STANDARD PLATE): inactive; negative | mutagenic call (Test System: AMES SALMONELLA TYPHIMURIUM, Strain/Indicator: TA97, Metabolic Activation: RAT, LIVER, S-9, PCB, Method: STANDARD PLATE): inactive; negative | mutagenic call [1]: inactive; negative | mutagenic call (Test System: AMES SALMONELLA TYPHIMURIUM, Strain/Indicator: TA98, Metabolic Activation: RAT LIVER S-9, PHENOBARBITAL AND BETA-NAPHTHOFLAVONE, Method: PREINCUBATION): inactive; negative | mutagenic call [2]: inactive; negative | mutagenic call [3]: inactive; negative | mutagenic call (Test System: AMES SALMONELLA TYPHIMURIUM, Strain/Indicator: TA100, Metabolic Activation: RAT LIVER S-9, PHENOBARBITAL AND BETA-NAPHTHOFLAVONE, Method: PREINCUBATION): inactive; negative | mutagenic call (Test System: AMES SALMONELLA TYPHIMURIUM, Strain/Indicator: TA100, Metabolic Activation: RAT, LIVER, MICROSOMES, PHENOBARBITAL, NADPH COFACTORS, Method: STANDARD PLATE): active; positive | mutagenic call (Test System: AMES SALMONELLA TYPHIMURIUM, Strain/Indicator: TA100, Metabolic Activation: RAT, LIVER, MICROSOMES, PHENOBARBITAL, Method: STANDARD PLATE): active; positive | mutagenic call (Test System: AMES SALMONELLA TYPHIMURIUM, Strain/Indicator: TA100, Metabolic Activation: RAT, LIVER, S-9, PCB, Method: STANDARD PLATE): inactive; negative | mutagenic call (Test System: AMES SALMONELLA TYPHIMURIUM, Strain/Indicator: TA1534, Metabolic Activation: HOST-MEDIATED, Method: IN VIVO): inactive; negative | mutagenic call [4]: inactive; negative | mutagenic call (Test System: AMES SALMONELLA TYPHIMURIUM, Strain/Indicator: TA1537, Metabolic Activation: NONE, Method: PREINCUBATION): inactive; negative | mutagenic call (Test System: AMES SALMONELLA TYPHIMURIUM, Strain/Indicator: TA1537, Metabolic Activation: RAT LIVER S-9, PHENOBARBITAL AND BETA-NAPHTHOFLAVONE, Method: PREINCUBATION): inactive; negative | mutagenic call (Test System: AMES SALMONELLA TYPHIMURIUM, Strain/Indicator: TA1950, Metabolic Activation: HOST-MEDIATED, Method: IN VIVO): inactive; negative | mutagenic call (Test System: E.COLI, Strain/Indicator: WP2UVRA, Metabolic Activation: NONE, Method: PREINCUBATION): inactive; negative | mutagenic call (Test System: E.COLI, Strain/Indicator: WP2UVRA, Metabolic Activation: RAT LIVER S-9, PHENOBARBITAL AND BETA-NAPHTHOFLAVONE, Method: PREINCUBATION): inactive; negative | mutagenic call (Test System: UDS RAT HEPATOCYTES, Strain/Indicator: THY INCORP, Metabolic Activation: NONE): active; positive

CC(=O)Nc1ccc2c(ccc3ccccc32)c1
mutagenic call (Test System: CHINESE HAMSTER OVARY, Strain/Indicator: AS52/6-THIOGUANINE, Metabolic Activation: NONE): inactive; negative | mutagenic call (Test System: CHINESE HAMSTER OVARY, Strain/Indicator: AS52/6-THIOGUANINE, Metabolic Activation: RAT LIVER S-9, 2-ACETYLAMINOFLUORINE): active; positive

CCOCC1CO1 (stereo unspecified)
mutagenic call [3]: active; positive | mutagenic call [5]: active; positive | mutagenic call (Test System: AMES SALMONELLA TYPHIMURIUM, Strain/Indicator: TA1535, Metabolic Activation: NONE, Method: STANDARD PLATE): active; positive | mutagenic call (Test System: AMES SALMONELLA TYPHIMURIUM, Strain/Indicator: TA1535, Metabolic Activation: RAT, LIVER, S-9, AROCLOR 1254, Method: STANDARD PLATE): active; positive

CC(=O)Oc1cc([N+](=O)[O-])c2ccc3cccc4ccc1c2c43
mutagenic call (Test System: AMES SALMONELLA TYPHIMURIUM, Strain/Indicator: TA98(1,8-DNP6), Metabolic Activation: NONE, Method: PREINCUBATION): active; positive | mutagenic call (Test System: AMES SALMONELLA TYPHIMURIUM, Strain/Indicator: TA98(NR), Metabolic Activation: NONE, Method: PREINCUBATION): active; positive | mutagenic call [1]: active; positive | mutagenic call (Test System: AMES SALMONELLA TYPHIMURIUM, Strain/Indicator: TA98, Metabolic Activation: RAT, LIVER, S-9, AROCLOR 1254, Method: PREINCUBATION): inactive; negative | mutagenic call [2]: active; positive | mutagenic call (Test System: AMES SALMONELLA TYPHIMURIUM, Strain/Indicator: TA100, Metabolic Activation: RAT, LIVER, S-9, AROCLOR 1254, Method: PREINCUBATION): active; positive

[N-]=[N+]=Nc1nc2ccccc2[nH]1
mutagenic call (Test System: AMES SALMONELLA TYPHIMURIUM, Strain/Indicator: TA98, Metabolic Activation: NONE, Method: STANDARD PLATE): active; positive

Cc1ccc2c3c1ccc1cccc(c13)C2
mutagenic call [5]: active; positive

CC(=O)OCc1c(O)cc2c(c1O)C(=O)c1ccccc1C2=O
mutagenic call [1]: active; positive | mutagenic call (Test System: AMES SALMONELLA TYPHIMURIUM, Strain/Indicator: TA98, Metabolic Activation: RAT, LIVER, S-9, PCB, Method: PREINCUBATION): active; positive | mutagenic call [2]: active; positive | mutagenic call (Test System: AMES SALMONELLA TYPHIMURIUM, Strain/Indicator: TA100, Metabolic Activation: RAT, LIVER, S-9, PCB, Method: PREINCUBATION): active; positive

C=C(C)c1ccccc1
mutagenic call (End Point: In vitro chromosomal aberrations, Test System: Chinese Hamster ovary (CHO) cells, Metabolic Activation: None): inactive; negative | mutagenic call (End Point: In vitro chromosomal aberrations, Test System: Chinese Hamster ovary (CHO) cells, Metabolic Activation: Rat, Liver, S-9, Aroclor 1254): inactive; negative | mutagenic call (End Point: In vivo micronucleus, Test System: Peripheral blood normochromatic erythrocytes, Species: Mouse, Strain/Sex: B6C3F1/ Female, Route: Inhalation): active; positive | mutagenic call (End Point: In vivo micronucleus, Test System: Peripheral blood normochromatic erythrocytes, Species: Mouse, Strain/Sex: B6C3F1/ Male, Route: Inhalation): active; positive | mutagenic call (Test System: AMES SALMONELLA TYPHIMURIUM, Strain/Indicator: TA97, Metabolic Activation: HAMSTER, LIVER, S-9, AROCLOR 1254 (10 OR 30%), Method: PREINCUBATION): inactive; negative | mutagenic call (Test System: AMES SALMONELLA TYPHIMURIUM, Strain/Indicator: TA97, Metabolic Activation: NONE, Method: PREINCUBATION): inactive; negative | mutagenic call (Test System: AMES SALMONELLA TYPHIMURIUM, Strain/Indicator: TA97, Metabolic Activation: RAT, LIVER, S-9, AROCLOR 1254 (10 OR 30%), Method: PREINCUBATION): inactive; negative | mutagenic call (Test System: AMES SALMONELLA TYPHIMURIUM, Strain/Indicator: TA98, Metabolic Activation: HAMSTER, LIVER, S-9, AROCLOR 1254 (10%), Method: PREINCUBATION): inactive; negative | mutagenic call (Test System: AMES SALMONELLA TYPHIMURIUM, Strain/Indicator: TA98, Metabolic Activation: HAMSTER, LIVER, S-9, AROCLOR 1254 (30%), Method: PREINCUBATION): inactive; negative | mutagenic call [1]: inactive; negative | mutagenic call (Test System: AMES SALMONELLA TYPHIMURIUM, Strain/Indicator: TA98, Metabolic Activation: RAT, LIVER, S-9, AROCLOR 1254 (10%), Method: PREINCUBATION): inactive; negative | mutagenic call (Test System: AMES SALMONELLA TYPHIMURIUM, Strain/Indicator: TA98, Metabolic Activation: RAT, LIVER, S-9, AROCLOR 1254 (30%), Method: PREINCUBATION): inactive; negative | mutagenic call (Test System: AMES SALMONELLA TYPHIMURIUM, Strain/Indicator: TA100, Metabolic Activation: HAMSTER, LIVER, S-9, AROCLOR 1254 (10%), Method: PREINCUBATION): inactive; negative | mutagenic call (Test System: AMES SALMONELLA TYPHIMURIUM, Strain/Indicator: TA100, Metabolic Activation: HAMSTER, LIVER, S-9, AROCLOR 1254 (30%), Method: PREINCUBATION): inactive; negative | mutagenic call [2]: inactive; negative | mutagenic call (Test System: AMES SALMONELLA TYPHIMURIUM, Strain/Indicator: TA100, Metabolic Activation: RAT, LIVER, S-9, AROCLOR 1254 (10%), Method: PREINCUBATION): inactive; negative | mutagenic call (Test System: AMES SALMONELLA TYPHIMURIUM, Strain/Indicator: TA100, Metabolic Activation: RAT, LIVER, S-9, AROCLOR 1254 (30%), Method: PREINCUBATION): inactive; negative | mutagenic call (Test System: AMES SALMONELLA TYPHIMURIUM, Strain/Indicator: TA1535, Metabolic Activation: HAMSTER, LIVER, S-9, AROCLOR 1254 (10 OR 30%), Method: PREINCUBATION): inactive; negative | mutagenic call [4]: inactive; negative | mutagenic call (Test System: AMES SALMONELLA TYPHIMURIUM, Strain/Indicator: TA1535, Metabolic Activation: RAT, LIVER, S-9, AROCLOR 1254 (10 OR 30%), Method: PREINCUBATION): inactive; negative
